According to US12583891B2, “Peptides and methods for the treatment of diabetes” (IMCYSE SA, priority 2017, dated 2026):

Experiments:
[1] = Reductase (reducing) activity of peptides, fluorescent FITC-peptide assay; assay type: biochemical; settings: fluorescent FITC-peptide disulfide reduction; dithiothreitol control = 100%
Protocol: The reductase activity of the peptides is determined using a fluorescent described in Tomazzolli et al. (2006) Anal. Biochem. 350, 105-112. Two peptides with a FITC label become self-quenching when they covalently attached to each other via a disulfide bridge. Upon reduction by a peptide in accordance with the present invention, the reduced individual peptides become fluorescent again.
Control experiments were performed with dithiothreitol (100% reducing activity) and water (100% reducing activity).

[2] = tested on: CD4+ T cell line from a T1D patient (T1D07); assay: Interferon gamma release by cytolytic CD4+ T cell line; assay type: cell-based, human; settings: for IFN-gamma (pg/ml), Stimulus 1: T cell line primed with p17-001, after 12 stimulations, co-culture with autologous LCL B cells loaded (2 μM) with peptide, supernatant after 24 hours, multiplex assay
Protocol: Interferon gamma is an important marker to characterise cytolytic CD4+ T cells. A specific CD4+ T cell line was obtained by priming and stimulating naïve CD4+ T cells from a T1D patient (T1D07) with peptide p17-001. After 12 stimulations, cells were co-cultured with autologous LCL B cells loaded (2 μM) with peptide p17-001 or p17-003. After 24 hours, supernatants were collected and IFN-gamma was measured by multiplex assay (see table 1 below).

[3] = tested on: CD4+ T cell lines from T1D patients; assay: FasL release by cytolytic CD4+ T cell lines; assay type: cell-based, human; settings: for FasL expression (pg/ml) Stimulation 1: day 11 of stimulation 1; for FasL expression (pg/ml) Stimulation 1 / FasL expression (pg/ml) Stimulation 2 / FasL expression (pg/ml) Stimulation 3 / FasL expression (pg/ml) Stimulation 4: restimulation with corresponding peptide presented by autologous B cells; for FasL expression (pg/ml) Stimulation 1 / FasL expression (pg/ml) Stimulation 2: supernatant after 24 h; for FasL expression (pg/ml) Stimulation 2: day 11 of stimulation 2; for FasL expression (pg/ml) Stimulation 3: day 11 of stimulation 3; for FasL expression (pg/ml) Stimulation 3 / FasL expression (pg/ml) Stimulation 4: supernatant after 72 h; for FasL expression (pg/ml) Stimulation 4: day 11 of stimulation 4
Protocol: The T cell line originally generated with p17 001 as described in example 3 above was divided and stimulated with peptide P17 003 or P17 001 over 4 successive in vitro stimulations using autologous LCL B cell line as APC. At day 11 of every stimulation (total of 4), cells were tested for FasL after restimulation with their corresponding peptide presented by autologous B cells. Supernatants were collected after 24 h (stimulation 1 and 2) or 72 h (stimulation 3 and 4) of co-culture.

[4] = tested on: PBMCs from T1D-patient T1D018 (IL5 positive cells); assay: sFasL release in cell lines generated from T1D-patient PBMCs; assay type: cell-based, human; settings: IL5 positive cells after 6 stimulation cycles, restimulated 24 h with cognate peptide; ELISA; p<0,0001
Protocol: FIG. 1: Release of sFasL in cell lines generated with p17-003 or p17-001. Cells specific for p17-003 or p17-001 (IL5 positive cells; black histograms) were restimulated for 24 h with antigen presenting cells loaded with peptides p17-003 or p17-001, depending of the peptide used for their generation, and supernatant collected after 24 h of co-culture. IL-5 negative cells are for control PBMC populations (open histograms). Results represent mean+/−SD of sFasL concentration corrected per cell number.
(§1) PBMCs from T1D-patient T1D018 were stimulated in vitro either with P17001 peptide or P17003 peptide. These two populations specifically release […] after antigenic activation. After 6 stimulation cycles with the peptides, both cell lines were enriched for IL-5 producing cells with cytokine capture beads. The two populations of Interleukin-5 negative cells were used as controls.
(§2) These four populations are then tested for specific release of sFasL, Granzyme B and cytokines after stimulation with their cognate peptide (P17-001 or P17-003). Supernatants are collected after 24 h of culture and sFasL and Granzyme B are measured by ELISA (sFasL: Diaclone 851730010; Granzyme B: eBioscience BMS2027) and cytokines by MACSplex Cytokine 12 kit (Miltenyi, 130-099-169).

[5] = tested on: PBMCs from T1D-patient T1D018 (IL5 positive fraction); assay: Cytokine release in cell lines generated from T1D-patient PBMCs (MACSplex Cytokine 12 kit); assay type: cell-based, human; settings: supernatant after 24 h, end of stimulation 10; FIG. 2
Protocol: as §1, §2
To determine if the in vitro cultured cells from T1D donors are specific for peptide P17001 or P17003, the release of cytokines, a hallmark for cell activation upon peptide stimulation, was investigated using MACSplex Cytokine 12 kit (Miltenyi, 130-099-169). Supernatant was collected after 24 h from the culture of T1D donor PBMCs in the absence or presence of the peptide. […] Specificity test was performed at the end of stimulation 10 (resting day). The result is presented as the difference in concentration of each cytokine in the condition without and with peptide.

Compound | reducing activity [1] | IFN-gamma (pg/ml), Stimulus 1 [2] | FasL expression (pg/ml) Stimulation 1 [3] | FasL expression (pg/ml) Stimulation 2 [3] | FasL expression (pg/ml) Stimulation 3 [3] | FasL expression (pg/ml) Stimulation 4 [3] | IFN-gamma produced after stimulation with p17 003 compared to p17 001 ([2]; ratio of Table 1 values) | FasL (sFasL) expression compared to P17-001 ([3]; each of the four stimulations) | sFasL release compared with cells generated by peptide p17-001 [4] | eliciting peptide specific cells (cytokine release upon peptide stimulation) compared with P17001 [5]
HCPYC VR SLQPLALEGSLQKRG (HCPYCVRSLQPLALEGSLQKRG; peptide with redox motif and insulin T cell epitope) [P17 001, reference compound] | 68% | 11.1 ± 0.8 pg/mL | 1335 ± 23.1 pg/mL | 1144 ± 15.4 pg/mL | 1227 ± 49.1 pg/mL | 1008 ± 102 pg/mL | – | – | – | –
O[C@H](CS)[C@H](O)CS (racemic) [dithiothreitol] | 100% | – | – | – | – | – | – | – | – | –
HCPYCSLQPLALEGSLQKRG (peptide with redox motif and insulin T cell epitope) [P17 003] | 65% | 29.7 ± 14.1 pg/mL | 1795 ± 42.4 pg/mL | 1812 ± 34.7 pg/mL | 2063 ± 166 pg/mL | 1526 ± 102 pg/mL | about 3 times | significantly higher | 4.5 fold | more potent
